Reference: patent US9265253B2, “Use of macrocyclic picolinamides as fungicides” (DOW AGROSCIENCES LLC, priority 2013, dated 2016)

Tested on: Magnaporthe grisea; Anamorph: Pyricularia oryzae
Test: whole plant or invertebrate
Format: in vivo
Conditions: Pyricularia oryzae, topical, 24 h, read-out: Disease Control PYRIOR 1 DP

Structure (SMILES)	pest or weed control at 100 ppm
CCCO[C@@H]1[C@@H](CCC(C)C)CCC[C@H](NC(=O)c2nccc(OC)c2OCOC(C)=O)C(=O)O[C@H]1C [Compound F92]	80 to 100%
CCCO[C@@H]1[C@@H](Cc2ccccc2)CCC[C@H](NC(=O)c2nccc(OC)c2OCOC(=O)COCC)C(=O)O[C@H]1C [Compound F174]	80 to 100%
CCOCC(=O)OCOc1c(OC)ccnc1C(=O)N[C@H]1CCC[C@H](CCOC)[C@@H](Oc2ccccc2)[C@H](C)OC1=O [Compound F183]	80 to 100%

Tested on: Rhyncosporium secalis
Test: Barley Scald (RHYNSE) disease control
Format: in vivo
Conditions: Hordeum vulgare, 24 h, 1 Day Protectant, read-out: Disease Control RHYNSE 1 DP
Protocol: Technical grades of materials were dissolved in acetone, which were then mixed with nine volumes of water containing 110 ppm Triton X-100. The fungicide solutions were applied onto wheat seedlings using an automated booth sprayer to run-off. All sprayed plants were allowed to air dry prior to further handling. All fungicides were evaluated using the aforementioned method for their activity vs. all target diseases. Wheat leaf blotch and brown rust activity were also evaluated using track spray applications, in which case the fungicides were formulated as EC formulations, containing 0.1% Trycol 5941 in the spray solutions. Wheat plants (variety Yuma) were grown from seed in a greenhouse in 50% mineral soil/50% soil-less Metro mix until the first leaf was fully emerged, with 7-10 seedlings per pot. These plants were inoculated with an aqueous spore suspension of Septoria tritici either prior to or after fungicide treatments. After inoculation the plants were kept in 100% relative humidity (one day in a dark dew chamber followed by two to three days in a lighted dew chamber at 20° C.) to permit spores to germinate and infect the leaf. The plants were then transferred to a greenhouse set at 20° C. for disease to develop. When disease symptoms were fully expressed on the 1st leaves of untreated plants, infection levels were assessed on a scale of 0 to 100 percent disease severity. Percent disease control was calculated using the ratio of disease severity on treated plants relative to untreated plants. Barley seedlings (variety Harrington) were propagated in soil-less Metro mix, with each pot having 8 to 12 plants, and used in the test when first leaf was fully emerged. Test plants were inoculated by an aqueous spore suspension of Rhyncosporium secalis 24 hr after fungicide treatments. After inoculation the plants were kept in a dew room at 20° C. with 100% relative humidity for 48 hr. The plants were then transferred to a greenhouse set at 20° C. for disease to develop. Fungicide formulation, application and disease assessment on the sprayed leaves followed the procedures as described in the Example A.

Structure (SMILES)	pest or weed control at 100 ppm
COc1ccnc(C(=O)N[C@H]2CCC[C@H](Cc3ccc(F)cc3F)[C@@H](OCC(C)C)[C@H](C)OC2=O)c1OCOC(C)=O [Compound F145]	80 to 100%
COc1ccnc(C(=O)N[C@H]2CCC[C@H](Cc3ccc(F)cc3F)[C@@H](OC(=O)c3ccco3)[C@H](C)OC2=O)c1OCOC(=O)C(C)C [Compound F157]	80 to 100%
COc1ccnc(C(=O)N[C@H]2CCC[C@H](Cc3ccc(F)cc3F)[C@@H](OC(=O)c3ccco3)[C@H](C)OC2=O)c1OCOC(C)=O [Compound F144]	80 to 100%
CCCO[C@@H]1[C@@H](CCC(C)C)CCC[C@H](NC(=O)c2nccc(OC)c2OCOC(C)=O)C(=O)O[C@H]1C [Compound F92]	80 to 100%
CCCO[C@@H]1[C@@H](Cc2ccccc2)CCC[C@H](NC(=O)c2nccc(OC)c2OCOC(=O)COCC)C(=O)O[C@H]1C [Compound F174]	80 to 100%
CCOCC(=O)OCOc1c(OC)ccnc1C(=O)N[C@H]1CCC[C@H](CCOC)[C@@H](Oc2ccccc2)[C@H](C)OC1=O [Compound F183]	80 to 100%

Tested on: Cercospora beticola
Test: Leaf Spot of Sugar Beets (CERCBE) disease control
Format: in vivo
Conditions: Cercospora beticola, topical, 24 h, 1 Day Protectant, sugar beet, read-out: Disease Control CERCBE 1 DP
Protocol: Technical grades of materials were dissolved in acetone, which were then mixed with nine volumes of water containing 110 ppm Triton X-100. The fungicide solutions were applied onto wheat seedlings using an automated booth sprayer to run-off. All sprayed plants were allowed to air dry prior to further handling. All fungicides were evaluated using the aforementioned method for their activity vs. all target diseases. Wheat leaf blotch and brown rust activity were also evaluated using track spray applications, in which case the fungicides were formulated as EC formulations, containing 0.1% Trycol 5941 in the spray solutions. Wheat plants (variety Yuma) were grown from seed in a greenhouse in 50% mineral soil/50% soil-less Metro mix until the first leaf was fully emerged, with 7-10 seedlings per pot. These plants were inoculated with an aqueous spore suspension of Septoria tritici either prior to or after fungicide treatments. After inoculation the plants were kept in 100% relative humidity (one day in a dark dew chamber followed by two to three days in a lighted dew chamber at 20° C.) to permit spores to germinate and infect the leaf. The plants were then transferred to a greenhouse set at 20° C. for disease to develop. When disease symptoms were fully expressed on the 1st leaves of untreated plants, infection levels were assessed on a scale of 0 to 100 percent disease severity. Percent disease control was calculated using the ratio of disease severity on treated plants relative to untreated plants. Sugar beet plants (variety HH88) were grown in soil-less Metro mix and trimmed regularly to maintain a uniform plant size prior to test. Plants were inoculated with a spore suspension 24 hr after fungicide treatments. Inoculated plants were kept in a dew chamber at 22° C. for 48 hr then incubated in a greenhouse set at 24° C. under a clear plastic hood with bottom ventilation until disease symptoms were fully expressed. Fungicide formulation, application and disease assessment on the sprayed leaves followed the procedures as described in the Example A.

Structure (SMILES)	pest or weed control at 100 ppm
COc1ccnc(C(=O)N[C@H]2CCC[C@H](Cc3ccc(F)cc3F)[C@@H](OCC(C)C)[C@H](C)OC2=O)c1OCOC(C)=O [Compound F145]	80 to 100%
COc1ccnc(C(=O)N[C@H]2CCC[C@H](Cc3ccc(F)cc3F)[C@@H](OC(=O)c3ccco3)[C@H](C)OC2=O)c1OCOC(=O)C(C)C [Compound F157]	80 to 100%
COc1ccnc(C(=O)N[C@H]2CCC[C@H](Cc3ccc(F)cc3F)[C@@H](OC(=O)c3ccco3)[C@H](C)OC2=O)c1OCOC(C)=O [Compound F144]	0 to 80%
CCCO[C@@H]1[C@@H](CCC(C)C)CCC[C@H](NC(=O)c2nccc(OC)c2OCOC(C)=O)C(=O)O[C@H]1C [Compound F92]	80 to 100%
CCCO[C@@H]1[C@@H](Cc2ccccc2)CCC[C@H](NC(=O)c2nccc(OC)c2OCOC(=O)COCC)C(=O)O[C@H]1C [Compound F174]	80 to 100%
CCOCC(=O)OCOc1c(OC)ccnc1C(=O)N[C@H]1CCC[C@H](CCOC)[C@@H](Oc2ccccc2)[C@H](C)OC1=O [Compound F183]	0 to 80%

Tested on: not given
Test: not given
Conditions: not given

Structure (SMILES)	melting point
COc1ccnc(C(=O)N[C@H]2CCC[C@H](Cc3ccc(F)cc3F)[C@@H](OCC(C)C)[C@H](C)OC2=O)c1OCOC(C)=O [Compound F145]	48 to 53 °C
COc1ccnc(C(=O)N[C@H]2CCC[C@H](Cc3ccc(F)cc3F)[C@@H](OC(=O)c3ccco3)[C@H](C)OC2=O)c1OCOC(=O)C(C)C [Compound F157]	68 to 72 °C
COc1ccnc(C(=O)N[C@H]2CCC[C@H](Cc3ccc(F)cc3F)[C@@H](OC(=O)c3ccco3)[C@H](C)OC2=O)c1OCOC(C)=O [Compound F144]	76 to 80 °C

Tested on: Leptosphaeria nodorum
Test: Wheat Glume Blotch (LEPTNO) disease control
Format: in vivo
Conditions: Parastagonospora nodorum, topical, 24 h, 1 Day Protectant, read-out: Disease Control LEPTNO 1 DP
Protocol: Technical grades of materials were dissolved in acetone, which were then mixed with nine volumes of water containing 110 ppm Triton X-100. The fungicide solutions were applied onto wheat seedlings using an automated booth sprayer to run-off. All sprayed plants were allowed to air dry prior to further handling. All fungicides were evaluated using the aforementioned method for their activity vs. all target diseases. Wheat leaf blotch and brown rust activity were also evaluated using track spray applications, in which case the fungicides were formulated as EC formulations, containing 0.1% Trycol 5941 in the spray solutions. Wheat plants (variety Yuma) were grown from seed in a greenhouse in 50% mineral soil/50% soil-less Metro mix until the first leaf was fully emerged, with 7-10 seedlings per pot. These plants were inoculated with an aqueous spore suspension of Septoria tritici either prior to or after fungicide treatments. After inoculation the plants were kept in 100% relative humidity (one day in a dark dew chamber followed by two to three days in a lighted dew chamber at 20° C.) to permit spores to germinate and infect the leaf. The plants were then transferred to a greenhouse set at 20° C. for disease to develop. When disease symptoms were fully expressed on the 1st leaves of untreated plants, infection levels were assessed on a scale of 0 to 100 percent disease severity. Percent disease control was calculated using the ratio of disease severity on treated plants relative to untreated plants. Wheat plants (variety Yuma) were grown from seed in a greenhouse in 50% mineral soil/50% soil-less Metro mix until the first leaf was fully emerged, with 7-10 seedlings per pot. These plants were inoculated with an aqueous spore suspension of Leptosphaeria nodorum 24 hr after fungicide treatments. After inoculation the plants were kept in 100% relative humidity (one day in a dark dew chamber followed by two days in a lighted dew chamber at 20° C.) to permit spores to germinate and infect the leaf. The plants were then transferred to a greenhouse set at 20° C. for disease to develop. Fungicide formulation, application and disease assessment followed the procedures as described in the Example A.

Structure (SMILES)	pest or weed control at 100 ppm
COc1ccnc(C(=O)N[C@H]2CCC[C@H](Cc3ccc(F)cc3F)[C@@H](OCC(C)C)[C@H](C)OC2=O)c1OCOC(C)=O [Compound F145]	80 to 100%
COc1ccnc(C(=O)N[C@H]2CCC[C@H](Cc3ccc(F)cc3F)[C@@H](OC(=O)c3ccco3)[C@H](C)OC2=O)c1OCOC(=O)C(C)C [Compound F157]	80 to 100%
COc1ccnc(C(=O)N[C@H]2CCC[C@H](Cc3ccc(F)cc3F)[C@@H](OC(=O)c3ccco3)[C@H](C)OC2=O)c1OCOC(C)=O [Compound F144]	80 to 100%
CCCO[C@@H]1[C@@H](CCC(C)C)CCC[C@H](NC(=O)c2nccc(OC)c2OCOC(C)=O)C(=O)O[C@H]1C [Compound F92]	80 to 100%
CCCO[C@@H]1[C@@H](Cc2ccccc2)CCC[C@H](NC(=O)c2nccc(OC)c2OCOC(=O)COCC)C(=O)O[C@H]1C [Compound F174]	80 to 100%
CCOCC(=O)OCOc1c(OC)ccnc1C(=O)N[C@H]1CCC[C@H](CCOC)[C@@H](Oc2ccccc2)[C@H](C)OC1=O [Compound F183]	80 to 100%

Tested on: Phakopsora pachyrhizi
Test: Asian Soybean Rust (PHAKPA) disease control
Format: in vivo
Conditions: Phakopsora pachyrhizi, topical, 24 h, 1 Day Protectant, read-out: Disease Control PHAKPA 1DP
Method in brief: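 Compounds in acetone diluted with nine volumes water containing 0.011% Tween 20, sprayed to run-off on two-week-old Williams 82 soybean seedlings, inoculated 3 days before or 1 day after treatment. Plants held 24 h in dark dew room at 22 °C, 100% RH, then at 23 °C; disease severity scored on sprayed leaves.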

Structure (SMILES)	pest or weed control at 25 ppm
COc1ccnc(C(=O)N[C@H]2CCC[C@H](Cc3ccc(F)cc3F)[C@@H](OCC(C)C)[C@H](C)OC2=O)c1OCOC(C)=O [Compound F145]	80 to 100%
COc1ccnc(C(=O)N[C@H]2CCC[C@H](Cc3ccc(F)cc3F)[C@@H](OC(=O)c3ccco3)[C@H](C)OC2=O)c1OCOC(=O)C(C)C [Compound F157]	0 to 80%
COc1ccnc(C(=O)N[C@H]2CCC[C@H](Cc3ccc(F)cc3F)[C@@H](OC(=O)c3ccco3)[C@H](C)OC2=O)c1OCOC(C)=O [Compound F144]	0 to 80%
CCCO[C@@H]1[C@@H](CCC(C)C)CCC[C@H](NC(=O)c2nccc(OC)c2OCOC(C)=O)C(=O)O[C@H]1C [Compound F92]	80 to 100%
CCCO[C@@H]1[C@@H](Cc2ccccc2)CCC[C@H](NC(=O)c2nccc(OC)c2OCOC(=O)COCC)C(=O)O[C@H]1C [Compound F174]	80 to 100%
CCOCC(=O)OCOc1c(OC)ccnc1C(=O)N[C@H]1CCC[C@H](CCOC)[C@@H](Oc2ccccc2)[C@H](C)OC1=O [Compound F183]	80 to 100%

Same assay, conditions: Phakopsora pachyrhizi, topical, 72 h, 3 Day Curative, read-out: Disease Control PHAKPA 3DC

Structure (SMILES)	pest or weed control at 25 ppm
COc1ccnc(C(=O)N[C@H]2CCC[C@H](Cc3ccc(F)cc3F)[C@@H](OCC(C)C)[C@H](C)OC2=O)c1OCOC(C)=O [Compound F145]	0 to 80%
CCCO[C@@H]1[C@@H](CCC(C)C)CCC[C@H](NC(=O)c2nccc(OC)c2OCOC(C)=O)C(=O)O[C@H]1C [Compound F92]	80 to 100%
CCCO[C@@H]1[C@@H](Cc2ccccc2)CCC[C@H](NC(=O)c2nccc(OC)c2OCOC(=O)COCC)C(=O)O[C@H]1C [Compound F174]	0 to 80%
CCOCC(=O)OCOc1c(OC)ccnc1C(=O)N[C@H]1CCC[C@H](CCOC)[C@@H](Oc2ccccc2)[C@H](C)OC1=O [Compound F183]	80 to 100%
